# Measured values published in patent publication US20260335277A1, “CHLOROTONIL DERIVATIVES” (priority 2023, published 2026).
# Several values for one entry are separate records, joined by “and”; a condition that tells them apart may be missing. Identical values can stand only once. Entries after “also recorded” stand apart in the source; their conditions may differ. Like-named read-outs stand apart in the source and are kept apart here.
# What was measured:
# E. faecalis ATCC-29212 = assay: MIC testing (broth microdilution, EUCAST); format: cell-based; conditions: Enterococcus faecalis, ATCC29212, E. faecalis ATCC-29212
# Protocol: (§1) Minimal inhibitory concentration (MIC) of the compounds in the present invention was determined using broth microdilution performed according to EUCAST guidelines (ISO20776-1:2019). S. aureus ATCC29213 and E. faecalis ATCC29212 served as quality control strains.
# [1] = system: E. faecium DSM-17050 (vancomycin-resistant, VRE); assay: MIC testing (broth microdilution, EUCAST); format: cell-based; conditions: Enterococcus faecium
# Protocol: as §1
# E. faecium DSM-20477 = assay: MIC testing (broth microdilution, EUCAST); format: cell-based; conditions: Enterococcus faecium, DSM20477, E. faecium DSM-20477
# Protocol: as §1
# [2] = system: S. aureus N315 (methicillin-resistant, MRSA); assay: MIC testing (broth microdilution, EUCAST); format: cell-based; conditions: Staphylococcus aureus, MRSA
# Protocol: as §1
# S. aureus Newman = assay: MIC testing (broth microdilution, EUCAST); format: cell-based
# Protocol: as §1
# S. epidermidis DSM-28765 = assay: MIC testing (broth microdilution, EUCAST); format: cell-based; conditions: Staphylococcus epidermidis, DSM28765, S. epidermidis DSM-28765; read-out: MIC S. epiderm.
# Protocol: as §1
# Aqueous solubility = format: physicochemical; conditions: for solubility thermodynamic: read-out: semi thermodynamic solubility
# Protocol: (§2) Complementing the toxicity profiling, ADME properties of the lead dehalogenil were determined. This had not been possible for the first generation frontrunner ChB1-Epo2 or the natural product ChA because of their poor limit of detection. […] Across species (mouse, rat, human), metabolic stability is high while plasma stability is moderate. Besides, no hemolysis and no inhibition of the metabolically important enzyme CYP3A4 was observed by both dehalogenil and ChA. Plasma protein binding (PPB) is >99.4% in all species.
# Metabolic stability = format: in vitro ADME; conditions: for microsomal CLint: liver microsomes, read-out: microsomal clearance
# Protocol: as §2
# [3] = Plasma protein binding (PPB); format: in vitro ADME, rat
# Protocol: as §2
# [4] = Plasma protein binding (PPB); format: in vitro ADME
# Protocol: as §2
# Hemolysis = format: cell-based
# Protocol: as §2
# [5] = In vivo PK after peroral administration (soy oil); set-up: species or system mouse; conditions: for half-life / AUC(0-t) / Cmax / Tmax: mouse, plasma; for half-life: read-out: t1/2z (converted)
# Protocol: Peroral administration was compared between dehalogenil and ChB1-Epo2. […] Clearance was slow (t1/2z 5.5 and 10 h for 10 and 50 mg/kg, respectively) but considerably higher than for ChB1-Epo2.
# [6] = In vivo PK, peroral vs. intravenous administration, peroral bioavailability; set-up: species or system mouse; conditions: for half-life: read-out: t1/2z (converted)
# From the text: According to the current invention, intravenous injection in vivo was possible for the first time using a vehicle consisting of 50% ClearSol™ in phosphate buffered saline (PBS) pH 7.4.
# [7] = In vivo PK after subcutaneous application (50% ClearSol/PBS pH 7.4); set-up: species or system mouse; conditions: for Cz / tz / AUC(0-t) / Cmax / Tmax: n = 3; for AUC(0-t) / Cmax / Tmax: mouse, in vivo
# Protocol: Dehalogenil was further applied subcutaneously at 5, 10 and 25 mg/kg in 50% ClearSol™/PBS pH 7.4.
# S. aureus = assay: Murine foreign body (catheter) infection model; format: in vivo, mouse
# Protocol: In a murine model, infected catheter tubings were implanted under the rodent skin followed by subcutaneous treatment (once per day with 25 mg/kg for six days).
# The infection was established using a bacterial inoculum of 1×10^4 colony-forming units (CFU) injected into the lumen of the implanted peripheral venous catheter tubing fragment. Dehalogenil (25 mg/kg) was administered s.c. once per day, starting at 3 h post infection. Linezolid (Zyvoxid, Pfizer) was used as a reference antibiotic. Six days post infection, mice were euthanized, edema sizes around the implanted catheter fragment determined (c), and the catheter fragments and surrounding tissues were explanted. Bacterial loads from catheter detached biofilms (a) and in surrounding tissue homogenates (b) were determined by CFU counting. The data represent the value of every individual animal (symbols) and the median (horizontal lines). […], **p<0.01, ***p<0.001 (Kruskal-Wallis tests followed by Dunn's post hoc test).
# P. berghei = P. berghei parasite load in mice; format: in vivo, mouse
# [8] = literature product; cited from earlier work
# [9] = mice, oral, soy oil, vs ChB1-Epo2
# [10] = po, mice, 10 mg/kg, mean (n = 3)
# [11] = po, mice, 50 mg/kg, mean (n = 3)
# [12] = mouse, in vivo, mice, 7.5 mg/kg iv, mean (n = 3)
# [13] = mouse, in vivo, mice, 10 mg/kg po, mean (n = 3)
# [14] = 25 mg/kg SC once per day, six days
smiles,measurement,setting,value
CC1=CC(C)C2C(C=CC3C(C)C=CC=CC(C)OC(=O)C(C)C(=O)CC(=O)C32)C1 (centres unmarked) [dehalogenil],MIC,E. faecalis ATCC-29212,0.1 µg/mL
same,MIC,[1],0.1 µg/mL
same,MIC,E. faecium DSM-20477,0.025 µg/mL
same,MIC,[2],0.05 µg/mL
same,MIC S. aureus,S. aureus Newman,0.05 µg/mL
same,MIC,S. epidermidis DSM-28765,0.2 µg/mL
same,solubility thermodynamic,Aqueous solubility; pH 5.0,34.9 ± 2.7 µM
same,solubility thermodynamic,Aqueous solubility; pH 7.4,41.4 ± 10.3 µM
same,Solubility increase compared to the natural product ChA,"Aqueous solubility; pH 7.4, vs ChA",more than 500 fold
same,solubility thermodynamic,Aqueous solubility; pH 9.0,16.5 ± 8.7 µM
same,Solubility compared to ChB1-Epo2,"Aqueous solubility; vs ChB1-Epo2, aqueous",more than doubled; also recorded: doubled aqueous solubility
same,metabolic stability,Metabolic stability; human,high
same,microsomal CLint,Metabolic stability; human,6.4 µL/min/mg
same,metabolic stability,Metabolic stability; mouse,high
same,microsomal CLint,Metabolic stability; mouse,6.4 µL/min/mg
same,metabolic stability,Metabolic stability; rat,high
same,microsomal CLint,Metabolic stability; rat,14 µL/min/mg
same,fraction unbound,"[3]; plasma, all species: rat",< 0.006
same,plasma protein binding,[3]; rat,>99.4%
same,fraction unbound,"[4]; human, all species: human, read-out: Plasma protein binding (PPB)",< 0.006
same,fraction unbound,"[4]; human, read-out: plasma protein binding",< 0.004
same,fraction unbound,"[4]; mouse, all species: mouse, read-out: Plasma protein binding (PPB)",< 0.006
same,fraction unbound,"[4]; mouse, read-out: plasma protein binding",< 0.002
same,hemolysis,Hemolysis,no hemolysis
same,hemolysis at 20 µM,"Hemolysis; 20 μM, human blood cells, read-out: haemolysis of human blood cells",1.4%
same,tz,"[5]; mice, 10 mg/kg, p.o., mean (n = 3)",24 h
same,tz,"[5]; mice, 50 mg/kg, p.o., mean (n = 3)",24 h
same,AUC0-tz compared to ChB1-Epo2,[5]; [9],ca. six-fold higher
same,cmax compared to ChB1-Epo2,[5]; [9],ca. four-fold higher
same,Clearance,"[5]; mice, po, soy oil",slow
same,half-life,"[5]; po, 10 mg/kg, mice, 10 mg/kg po, soy oil",5.5 h
same,half-life,"[5]; po, 10 mg/kg, mice, 10 mg/kg, p.o., mean (n = 3)",5.5 h
same,half-life,"[5]; po, 50 mg/kg, mice, 50 mg/kg po, soy oil",10 h
same,half-life,"[5]; po, 50 mg/kg, mice, 50 mg/kg, p.o., mean (n = 3)",10.2 h
same,AUC(0-t),[5]; [10],3020 ng·h/mL
same,Cmax,[5]; [10],261 ng/mL
same,Tmax,[5]; [10],3 h
same,AUC(0-t),[5]; [11],8360 ng·h/mL
same,Cmax,[5]; [11],579 ng/mL
same,Tmax,[5]; [11],3 h
same,higher plasma levels,"[5]; rodents, comparator chlorotonil B1-Epo2 (implied)",3 fold
same,bioavailability,"[6]; mice, 7.5 mg/kg iv (reference)",100%
same,tz,"[6]; mice, 7.5 mg/kg iv, mean (n = 3)",24 h
same,tz,"[6]; mice, 10 mg/kg po, mean (n = 3)",24 h
same,AUC(0-inf),[6]; [12],12100 ng·h/mL
same,AUC(0-t),[6]; [12],9580 ng·h/mL
same,C0,[6]; [12],872 ng/mL
same,half-life,[6]; [12],10.8 h
same,bioavailability,"[6]; mouse, in vivo, mice, 10 mg/kg po vs 7.5 mg/kg iv, read-out: Bioavailability",9.5%
same,AUC(0-inf),[6]; [13],1540 ng·h/mL
same,AUC(0-t),[6]; [13],1400 ng·h/mL
same,Cmax,[6]; [13],101 ng/mL
same,Tmax,[6]; [13],3 h
same,half-life,[6]; [13],6.7 h
same,bioavailability,"[6]; mouse, in vivo, rodents, oral, read-out: oral bioavailability",~10%
same,Cz,"[7]; mice, 5 mg/kg sc",109.0 ng/mL
same,tz,"[7]; mice, 5 mg/kg sc",24.0 h
same,Cz,"[7]; mice, 10 mg/kg sc",257.0 ng/mL
same,tz,"[7]; mice, 10 mg/kg sc",24.0 h
same,"Plasma levels, subcutaneous vs intravenous","[7]; mice, 25 mg/kg sc vs 7.5 mg/kg iv",comparable to 7.5 mg/kg dehalogenil applied intravenously
same,Cz,"[7]; mice, 25 mg/kg sc",595 ng/mL
same,tz,"[7]; mice, 25 mg/kg sc",24.0 h
same,Dose response after subcutaneous application,"[7]; mice, 5, 10 and 25 mg/kg sc",suitable dose response
same,AUC(0-t),"[7]; mice, 5 mg/kg sc",2690 ng·h/mL
same,Cmax,"[7]; mice, 5 mg/kg sc",125 ng/mL
same,Tmax,"[7]; mice, 5 mg/kg sc",7 h
same,AUC(0-t),"[7]; mice, 10 mg/kg sc",8090 ng·h/mL
same,Cmax,"[7]; mice, 10 mg/kg sc",488 ng/mL
same,Tmax,"[7]; mice, 10 mg/kg sc",3 h
same,AUC(0-t),"[7]; mice, 25 mg/kg sc",18500 ng·h/mL
same,Cmax,"[7]; mice, 25 mg/kg sc",1200 ng/mL
same,Tmax,"[7]; mice, 25 mg/kg sc",3 h
same,reduction in bacterial loads in the tissues surrounding the catheter fragments,S. aureus; [14],> 3 log10 and 3.24 log10
same,reduction in bacterial loads on the catheter fragments,S. aureus; [14],> 3 log10 and 3.85 log10
same,bacterial load at the site of infection and on the implant,S. aureus; 6×25 mg/kg SC,significantly reducing bacterial loads
same,reduction of P. berghei parasite load,P. berghei,> 99%
same,activity described in the literature,[8],inactive
